Laboratory results as given in the supplement of paper PMC4862054.

Tests used:
Details in all cases: incubation time: 72 h
MFM-223 [1] = assay: drug sensitivity score (DSS), CellTiter-Glo (DSS (AUC-based score)); higher = stronger drug effect (viability inhibition or cytotoxicity); extreme values may be limits of the assay
Outline: (§1)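 Breast cancer cell lines (20 µl suspension) were seeded into 384-well plates holding compound at 5 concentrations in 10-fold steps over a compound-specific 10,000-fold range, then incubated 72 h. CellTox Green fluorescence (485/520 nm) was read first, then CellTiter-Glo luminescence after 10 min at room temperature. Each plate was normalised to 0.1 % DMSO and a positive kill control. The drug sensitivity score was calculated from the area under the fitted dose-response curve.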

MDA-MB-453 [2] = assay: as above
Outline: as §1

BT-549 [3] = assay: as above
Outline: as §1

MCF-10A [4] = assay: as above
Outline: as §1

HCC1143 [5] = assay: as above
Outline: as §1

CAL-148 [6] = assay: as above
Outline: as §1

MDA-MB-436 [7] = assay: as above
Outline: as §1

HCC1937 [8] = assay: as above
Outline: as §1

MDA-MB-468 [9] = assay: as above
Outline: as §1

HCC1599 = assay: normalised response (% of control), CellTiter-Glo; higher = more viable cells (100 = DMSO, 0 = benzethonium chloride kill control)
Outline: (§2)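 In 384-well plates holding compound at 5 concentrations in 10-fold steps over a 10,000-fold range specific to each compound, breast cancer cell lines were seeded as 20 µl suspension and incubated 72 h. CellTox Green fluorescence was measured at 485/520 nm, after which CellTiter-Glo luminescence was measured following 10 min at room temperature. Plate signals were normalised to 0.1 % DMSO (100) and a positive kill control (0), and each value is the normalised signal at a single concentration.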

MFM-223 [10] = assay: as above
Outline: as §2

CAL-120 = assay: as above
Outline: as §2

MDA-MB-453 [11] = assay: as above
Outline: as §2

BT-549 [12] = assay: as above
Outline: as §2

Hs578T = assay: as above
Outline: as §2

MCF-10A [13] = assay: as above
Outline: as §2

HCC1143 [14] = assay: as above
Outline: as §2

SK-BR-3 = assay: as above
Outline: as §2

CAL-51 = assay: as above
Outline: as §2

CAL-85-1 = assay: as above
Outline: as §2

DU-4475 = assay: as above
Outline: as §2

BT-474 = assay: as above
Outline: as §2

MDA-MB-231 = assay: as above
Outline: as §2

CAL-148 [15] = assay: as above
Outline: as §2

HDQ-P1 = assay: as above
Outline: as §2

MDA-MB-436 [16] = assay: as above
Outline: as §2

HCC1937 [17] = assay: as above
Outline: as §2

MDA-MB-468 [18] = assay: as above
Outline: as §2

Row | SMILES | drug sensitivity score (MFM-223 [1]) | drug sensitivity score (MDA-MB-453 [2]) | drug sensitivity score (BT-549 [3]) | drug sensitivity score (MCF-10A [4]) | drug sensitivity score (HCC1143 [5]) | drug sensitivity score (CAL-148 [6]) | drug sensitivity score (MDA-MB-436 [7]) | drug sensitivity score (HCC1937 [8]) | drug sensitivity score (MDA-MB-468 [9]) | further results
1 | CCCCCCCCCCCCCCCCCCOP(=O)([O-])OC1CC[N+](C)(C)CC1 [Perifosine] | 0 | 0 | 0 | 0.579 | 0 | 0 | 0.0848 | 0.853 | 0 | 
2 | C=C(c1ccc(C(=O)O)cc1)c1cc2c(cc1C)C(C)(C)CCC2(C)C [Bexarotene] | 0 | 0 | 0 | 0 | 0 | 0 | 0 | 0 | 0 | 
3 | O=P1(NCCCl)OCCCN1CCCl (centres undefined) [Ifosfamide] | 0 | 0 | 0 | 0 | 0 | 0 | 0 | 0 | 0 | 
4 | CNCc1ccc(-c2[nH]c3cc(F)cc4c3c2CCNC4=O)cc1 [Rucaparib] | 0 | 0 | 0.12 | 0 | 0 | 1.62 | 1.14 | 0 | 2.43 | 
5 | CN[C@@H]1C[C@H]2O[C@@](C)([C@@H]1OC)n1c3ccccc3c3c4c(c5c6ccccc6n2c5c31)C(=O)N[C@H]4O [UCN-01] | 16.6 | 17.3 | 21.6 | 27.8 | 19.7 | 8.79 | 20.9 | 18.8 | 23.7 | 
6 | NC(=O)Nc1cc(-c2cccc(F)c2)sc1C(=O)N[C@H]1CCCNC1 [AZD7762] | 0 | 5.03 | 8.18 | 3.48 | 4.03 | 0 | 5.18 | 2.78 | 1.93 | 
7 | CO[C@H]1/C=C\C=C(/C)C(=O)NC2=CC(=O)C(NCCN(C)C)=C(C[C@@H](C)C[C@H](OC)[C@H](O)[C@@H](C)/C=C(\C)[C@@H]1OC(N)=O)C2=O [Alvespimycin] | 13.1 | 15.3 | 16.1 | 14.9 | 12.1 | 13.3 | 13.1 | 12.6 | 11.9 | 
8 | N#CCNC(=O)c1ccc(-c2ccnc(Nc3ccc(N4CCOCC4)cc3)n2)cc1 [Momelotinib] | 0 | 0 | 6.02 | 5.18 | 1.42 | 0 | 0 | 0 | 5.4 | 
9 | CS(=O)(=O)c1ccc(C2=C(c3ccccc3)C(=O)OC2)cc1 [Rofecoxib] | 0 | 0 | 0 | 0 | 0 | 0 | 0 | 0 | 0 | 
10 | Cc1ccc(-n2nc(C(C)(C)C)cc2NC(=O)Nc2ccc(OCCN3CCOCC3)c3ccccc23)cc1 [Doramapimod] | 2.15 | 1.59 | 0 | 0 | 0 | 0 | 0 | 0 | 2.44 | 
11 | CCC1=C[C@@H]2CN(C1)Cc1c([nH]c3ccccc13)[C@@](C(=O)OC)(c1cc3c(cc1OC)N(C)[C@H]1[C@@](O)(C(=O)OC)[C@H](OC(C)=O)[C@]4(CC)C=CCN5CC[C@]31[C@@H]54)C2 [Vinorelbine] | 16 | 15.6 | 20.7 | 10.2 | 15.6 | 17.1 | 21.9 | 8.42 | 24.8 | 
12 | O=C1CCC(N2C(=O)c3ccccc3C2=O)C(=O)N1 (centres undefined) [Thalidomide] | 0 | 0 | 0 | 0 | 0 | 0 | 0 | 0 | 0 | 
13 | O=C(CCCCCCC(=O)Nc1ccc([C@H]2O[C@@H](CSc3nc(-c4ccccc4)c(-c4ccccc4)o3)C[C@@H](c3ccc(CO)cc3)O2)cc1)NO [Tubacin] | 4.83 | 8.42 | 2.95 | 0 | 3.15 | 0.986 | 0 | 3.76 | 8.6 | 
14 | CCC1(c2ccc(N)cc2)CCC(=O)NC1=O (centres undefined) [Aminoglutethimide] | 0 | 0 | 0 | 0 | 0 | 0 | 0 | 0 | 0 | 
15 | CN(C)/N=N/c1[nH]cnc1C(N)=O [Dacarbazine] | 0 | 0 | 0 | 0 | 0 | 0 | 0 | 0 | 0 | 
16 | COc1cc2nccc(Oc3ccc(NC(=O)C4(C(=O)Nc5ccc(F)cc5)CC4)cc3)c2cc1OC [Cabozantinib] | 0 | 0 | 0 | 0 | 0 | 0 | 0 | 0 | 0 | 
17 | COc1cc([C@@H]2c3cc4c(cc3[C@@H](O[C@@H]3O[C@@H]5CO[C@@H](C)O[C@H]5[C@H](O)[C@H]3O)[C@H]3COC(=O)[C@H]23)OCO4)cc(OC)c1O [Etoposide] | 0 | 0 | 5.14 | 0 | 4.37 | 7.19 | 7.41 | 0 | 5.45 | 
18 | Oc1nc(-c2ccc(C(F)(F)F)cc2)nc2c1CSCC2 [XAV-939] | 0 | 0.956 | 0 | 0 | 0 | 0 | 0 | 0 | 0.9 | 
19 | N[C@@H](CSC(c1ccccc1)(c1ccccc1)c1ccccc1)C(=O)O [S-trityl-L-cysteine] | 0 | 0 | 0 | 0 | 0 | 0 | 0 | 0 | 0 | 
20 | CC(C)Cn1cnc2c(N)nc3ccccc3c21 [Imiquimod] | 0 | 0 | 0 | 0 | 0 | 0 | 0 | 0 | 0 | 
21 | C[C@@H](Oc1cc(-c2cnn(C3CCNCC3)c2)cnc1N)c1c(Cl)ccc(F)c1Cl [Crizotinib] | 0 | 0 | 0 | 0 | 0 | 0 | 0 | 0 | 0.0242 | 
22 | C[C@]12CC[C@@H]3c4ccc(O)cc4C[C@@H](CCCCCCCCC[S+]([O-])CCCC(F)(F)C(F)(F)F)[C@H]3[C@@H]1CC[C@@H]2O (some centres undefined) [Fulvestrant] | 0 | 0 | 0 | 0 | 0 | 0 | 0 | 0 | 0 | 
23 | Clc1ccc(Nc2nnc(Cc3ccncc3)c3ccccc23)cc1 [Vatalanib] | 0 | 0 | 0 | 0 | 0 | 0 | 0 | 0 | 0 | 
24 | CN(N=O)C(=O)N[C@@H](C=O)[C@@H](O)[C@H](O)[C@H](O)CO [Streptozocin] | 0 | 0 | 0 | 0 | 0 | 0 | 0 | 0 | 0 | 
25 | Cc1ccc(C(=O)N(CCCN)[C@@H](c2oc3cc(Cl)ccc3c(=O)c2Cc2ccccc2)C(C)C)cc1 | 0 | 0 | 0 | 0 | 0 | 0 | 0 | 0 | 0 | 
26 | CN(N=O)C(=O)N[C@@H](C=O)[C@@H](O)[C@H](O)[C@H](O)CO [Streptozocin] (1000 nM) |  |  |  |  |  |  |  |  |  | normalised response (HCC1599): 107%; normalised response (MFM-223 [10]): 103%; normalised response (CAL-120): 105%; normalised response (MDA-MB-453 [11]): 109%; normalised response (BT-549 [12]): 98.2%; normalised response (Hs578T): 109%; normalised response (MCF-10A [13]): 109%; normalised response (HCC1143 [14]): 112%; normalised response (SK-BR-3): 100%; normalised response (CAL-51): 107%; normalised response (CAL-85-1): 104%; normalised response (DU-4475): 100%; normalised response (BT-474): 107%; normalised response (MDA-MB-231): 106%; normalised response (CAL-148 [15]): 100%; normalised response (HDQ-P1): 107%; normalised response (MDA-MB-436 [16]): 98.3%; normalised response (HCC1937 [17]): 108%; normalised response (MDA-MB-468 [18]): 104%
